Measurements as given in PubChem BioAssay (NCI).
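Assay format: 96-well plates, 48-hour exposure. TGI denotes the concentration required for complete inhibition of growth.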

How the values were obtained:
Test in all cases: NCI anticancer screen, dose series, 48 h
CCRF-CEM leukemia = system: CCRF-CEM leukemia
HCT-116 colon = system: HCT-116 colon
TK-10 renal = system: TK-10 renal
SW-620 colon = system: SW-620 colon
SNB-75 CNS = system: SNB-75 CNS
SNB-19 CNS = system: SNB-19 CNS
PC-3 prostate = system: PC-3 prostate
MOLT-4 leukemia = system: MOLT-4 leukemia
RXF 393 renal = system: RXF 393 renal
UACC-257 melanoma = system: UACC-257 melanoma
SF-539 CNS = system: SF-539 CNS
MCF7 breast = system: MCF7 breast
COLO 205 colon = system: COLO 205 colon
KM12 colon = system: KM12 colon
NCI/ADR-RES ovarian = system: NCI/ADR-RES ovarian
NCI-H460 lung = system: NCI-H460 lung
MDA-N = system: MDA-N
NCI-H226 lung = system: NCI-H226 lung
786-0 renal = system: 786-0 renal
MDA-MB-231 breast = system: MDA-MB-231 breast
OVCAR-4 ovarian = system: OVCAR-4 ovarian
HCC-2998 colon = system: HCC-2998 colon
HOP-92 NSCLC = system: HOP-92 NSCLC
EKVX NSCLC = system: EKVX NSCLC
K-562 leukemia = system: K-562 leukemia
A549 NSCLC = system: A549 NSCLC
SF-295 CNS = system: SF-295 CNS
A498 renal = system: A498 renal
IGROV1 ovarian = system: IGROV1 ovarian
M14 melanoma = system: M14 melanoma
SK-MEL-28 melanoma = system: SK-MEL-28 melanoma
HOP-62 NSCLC = system: HOP-62 NSCLC
LOX IMVI melanoma = system: LOX IMVI melanoma
SK-MEL-2 melanoma = system: SK-MEL-2 melanoma
NCI-H23 lung = system: NCI-H23 lung
UO-31 renal = system: UO-31 renal
SK-MEL-5 melanoma = system: SK-MEL-5 melanoma
DU-145 prostate = system: DU-145 prostate
MALME-3M melanoma = system: MALME-3M melanoma
MDA-MB-435 = system: MDA-MB-435
HCT-15 colon = system: HCT-15 colon
OVCAR-3 ovarian = system: OVCAR-3 ovarian
SK-OV-3 ovarian = system: SK-OV-3 ovarian
HL-60(TB) leukemia = system: HL-60(TB) leukemia
T-47D breast = system: T-47D breast
HT29 colon = system: HT29 colon
OVCAR-8 ovarian = system: OVCAR-8 ovarian
U251 CNS = system: U251 CNS
SF-268 CNS = system: SF-268 CNS
NCI-H522 lung = system: NCI-H522 lung
BT-549 breast = system: BT-549 breast
SN12C renal = system: SN12C renal
CAKI-1 renal = system: CAKI-1 renal
OVCAR-5 ovarian = system: OVCAR-5 ovarian
HS 578T breast = system: HS 578T breast
RPMI-8226 leukemia = system: RPMI-8226 leukemia
ACHN renal = system: ACHN renal
UACC-62 melanoma = system: UACC-62 melanoma

C=Cc1nc(C#N)c(N)o1
TGI (CCRF-CEM leukemia): > 100 µM
TGI (HCT-116 colon): > 100 µM
TGI (TK-10 renal): > 100 µM
TGI (SW-620 colon): > 100 µM
TGI (SNB-75 CNS): > 100 µM
TGI (SNB-19 CNS): > 100 µM
TGI (PC-3 prostate): > 100 µM
TGI (MOLT-4 leukemia): > 100 µM
TGI (RXF 393 renal): > 100 µM
TGI (UACC-257 melanoma): > 100 µM
TGI (SF-539 CNS): > 100 µM
TGI (MCF7 breast): > 100 µM
TGI (COLO 205 colon): > 100 µM
TGI (KM12 colon): > 100 µM
TGI (NCI/ADR-RES ovarian): > 100 µM
TGI (NCI-H460 lung): > 100 µM
TGI (MDA-N): > 100 µM
TGI (NCI-H226 lung): > 100 µM
TGI (786-0 renal): > 100 µM
TGI (MDA-MB-231 breast): > 100 µM
TGI (OVCAR-4 ovarian): > 100 µM
TGI (HCC-2998 colon): > 100 µM
TGI (HOP-92 NSCLC): > 100 µM
TGI (EKVX NSCLC): > 100 µM
TGI (K-562 leukemia): > 100 µM
TGI (A549 NSCLC): > 100 µM
TGI (SF-295 CNS): > 100 µM
TGI (A498 renal): > 100 µM
TGI (IGROV1 ovarian): > 100 µM
TGI (M14 melanoma): > 100 µM
TGI (SK-MEL-28 melanoma): > 100 µM
TGI (HOP-62 NSCLC): > 100 µM
TGI (LOX IMVI melanoma): > 100 µM
TGI (SK-MEL-2 melanoma): > 100 µM
TGI (NCI-H23 lung): > 100 µM
TGI (UO-31 renal): > 100 µM
TGI (SK-MEL-5 melanoma): > 100 µM
TGI (DU-145 prostate): > 100 µM
TGI (MALME-3M melanoma): > 100 µM
TGI (MDA-MB-435): > 100 µM
TGI (HCT-15 colon): > 100 µM
TGI (OVCAR-3 ovarian): > 100 µM
TGI (SK-OV-3 ovarian): > 100 µM
TGI (HL-60(TB) leukemia): > 100 µM
TGI (T-47D breast): > 100 µM
TGI (HT29 colon): > 100 µM
TGI (OVCAR-8 ovarian): > 100 µM
TGI (U251 CNS): > 100 µM
TGI (SF-268 CNS): > 100 µM
TGI (NCI-H522 lung): > 100 µM
TGI (BT-549 breast): > 100 µM
TGI (SN12C renal): > 100 µM
TGI (CAKI-1 renal): > 100 µM
TGI (OVCAR-5 ovarian): > 100 µM
TGI (HS 578T breast): > 100 µM
TGI (RPMI-8226 leukemia): > 100 µM

O=C(N/N=C(/COc1ccccc1Cl)N=Cc1ccncc1)c1ccncc1
TGI (CCRF-CEM leukemia): > 100 µM
TGI (HCT-116 colon): > 100 µM
TGI (TK-10 renal): > 100 µM
TGI (SW-620 colon): > 100 µM
TGI (SNB-75 CNS): 98.7 µM
TGI (SNB-19 CNS): > 100 µM
TGI (PC-3 prostate): > 100 µM
TGI (MOLT-4 leukemia): > 100 µM
TGI (RXF 393 renal): > 100 µM
TGI (UACC-257 melanoma): > 100 µM
TGI (SF-539 CNS): > 100 µM
TGI (MCF7 breast): > 100 µM
TGI (ACHN renal): > 100 µM
TGI (COLO 205 colon): > 100 µM
TGI (KM12 colon): > 100 µM
TGI (NCI/ADR-RES ovarian): > 100 µM
TGI (NCI-H460 lung): > 100 µM
TGI (MDA-N): > 100 µM
TGI (786-0 renal): > 100 µM
TGI (MDA-MB-231 breast): > 100 µM
TGI (OVCAR-4 ovarian): > 100 µM
TGI (HCC-2998 colon): > 100 µM
TGI (HOP-92 NSCLC): > 100 µM
TGI (EKVX NSCLC): > 100 µM
TGI (K-562 leukemia): > 100 µM
TGI (A549 NSCLC): > 100 µM
TGI (UACC-62 melanoma): > 100 µM
TGI (SF-295 CNS): > 100 µM
TGI (A498 renal): > 100 µM
TGI (IGROV1 ovarian): > 100 µM
TGI (M14 melanoma): > 100 µM
TGI (SK-MEL-28 melanoma): > 100 µM
TGI (HOP-62 NSCLC): > 100 µM
TGI (LOX IMVI melanoma): > 100 µM
TGI (SK-MEL-2 melanoma): > 100 µM
TGI (NCI-H23 lung): > 100 µM
TGI (DU-145 prostate): > 100 µM
TGI (MALME-3M melanoma): > 100 µM
TGI (MDA-MB-435): > 100 µM
TGI (HCT-15 colon): > 100 µM
TGI (OVCAR-3 ovarian): > 100 µM
TGI (SK-OV-3 ovarian): > 100 µM
TGI (HL-60(TB) leukemia): > 100 µM
TGI (T-47D breast): > 100 µM
TGI (HT29 colon): > 100 µM
TGI (OVCAR-8 ovarian): > 100 µM
TGI (U251 CNS): > 100 µM
TGI (SF-268 CNS): > 100 µM
TGI (NCI-H522 lung): > 100 µM
TGI (BT-549 breast): > 100 µM
TGI (SN12C renal): > 100 µM
TGI (CAKI-1 renal): > 100 µM
TGI (OVCAR-5 ovarian): > 100 µM
TGI (HS 578T breast): > 100 µM
TGI (RPMI-8226 leukemia): > 100 µM
